Each structure is given as a SMILES string. Read-outs that look alike come from different tables or passages of the source.

The target in series [1] is LiGDP-MP (Leishmania infantum, UniProt A4I048). In words: Enzyme inhibition assay on purified recombinant LiGDP-MP (malachite green). In kind it is biochemical. From the text: (§1) Recombinant His6 tagged GDP-MP from L. infantum (LiGDP-MP) was produced in E. coli and purified using Ni-nitrilotriacetic acid (Ni-NTA) and size exclusion chromatography Hiload^TM16/60 Superdex^TM 200 column as previously described for LdGDP-MP [12]. Recombinant His-tagged GDP-MP from human (hGDP-MP) was produced in E. coli and purified using a Mono-Q anion exchange column followed by a Hiload^TM 16/60 Superdex^TM 200 column as previously described.
(§2) Enzyme activities of both LiGDP-MP and hGDP-MP were measured at 37 °C for 20 min in 384 well plates in a 20-µL reaction containing 50 mM Tris-HCl pH 7.5, 5 mM MgCl2, 100 µM Mannose-1-phosphate, 100 µM GTP, 1 mM DTT, 0.1 U/mL inorganic pyrophosphatase (Sigma-Aldrich, Saint-Quentin-Fallavier, France) and 2 ng/µL of recombinant GDP-MP [12, 29]. The reaction was initiated by the addition of GDP-MP, and was stopped after adding 20 µL of revelation buffer containing malachite green (0.03% w/v), ammonium molybdate (0.2% w/v) and Triton X-100 (0.05% v/v) in HCl (0.7 M) for 5 min at 37 °C. The quantity of inorganic phosphate generated, representing GDP-MP activity, was determined by measuring OD650nm with a spectrometer plate reader Polar Omega (BMG LabTech, Champigny-sur-Marne, France).
(§3) To evaluate compounds on purified GDP-MPs, enzyme activities were measured as described above in the presence of 100 µg/mL of natural products originating from a chemical library from ICSN (Institut de Chimie des Substances Naturelles, Gif-sur-Yvette). The inhibitors were added in the reaction mix, before the addition of GDP-MP. The percentage of inhibition was then calculated in reference to untreated enzyme. The statistical parameter (Z-factor) was calculated to validate the quality of the HTS assays as described previously. As a control, compounds were evaluated in parallel in the same conditions on inorganic pyrophosphatase alone in order to discard false-positives. […] The IC50 were determined by nonlinear regression using GraphPad Prism 7.0 and further converted in µM in order to normalize units in Table 1. Enzyme inhibition assays were performed in triplicate in three independent experiments.

Series [2] deals with L. infantum axenic amastigotes. Description: In vitro antileishmanial evaluation on axenic amastigotes (resazurin). It is filed as cell-based, Leishmania infantum. As to conditions: 72 h incubation, read-out: L. infantum Axenic Amastigotes IC50 (µM) ± SD. Here is the method:
Promastigotes of Leishmania infantum (MHOM/FR/2008/LEM5700) were cultured in the dark at 26 °C with 5% CO2 in M199 complete medium containing M199 medium supplemented with adenosine (100 µM), hemin (0.5 mg/L), Hepes (40 mM) pH 7.4, and heat inactivated foetal bovine serum (10%; HIFBS). Cultures of axenic amastigotes of L. infantum were adapted from. Briefly, axenic amastigotes of L. infantum were obtained from late log promastigotes diluted at 1 × 10^6/mL in M199 complete medium acidified at pH 5.5 and cultured at 37 °C with 5% CO2.
The evaluations of activity on axenic amastigotes were adapted from the protocols previously described. Briefly, two-fold serial dilutions of the compounds, from 100 µM to 0.049 µM, were performed in 100 µL of complete medium (see above) in 96-well microplates. Axenic amastigotes were then added to each well at a density of 10^6/mL in a 200 µL final volume. After 72 h of incubation at 37 °C with 5% CO2, 20 µL of resazurin (450 µM) was added to each well and further incubated in the dark for 24 h at 37 °C with 5% CO2. Cell viability was then monitored as described above. The activity of the compounds was expressed as IC50, which was determined by nonlinear regression using GraphPad Prism 7.0.
(In general: The colour change of resazurin is a common sign of viable cells or microbes.)

Series [3] has as its system L. infantum intramacrophage amastigotes. Description: In vitro antileishmanial evaluation on intramacrophage amastigotes (Giemsa counting in RAW 264.7). As to conditions: for IC50: Leishmania infantum, RAW264.7, RAW 264.7 macrophages, 48 h treatment, read-out: L. infantum Intramacrophage Amastigotes IC50 (µM) ± SD; for Selectivity Index: CC50/IC50 on intramacrophage amastigotes. In kind it is cell-based, Leishmania infantum. Here is the method:
Concerning the evaluation on intramacrophage amastigotes, the determination of the cytotoxicity as presented above was necessary to use the highest drug concentrations to be studied on the intramacrophage amastigote model. RAW 264.7 macrophages were plated in 16-well Lab-Tek chamber slides (Thermo-FisherVillebon-sur-Yvette, France) at a density of 2 × 10^4 cells per well and incubated for 24 h at 37 °C with 5% CO2. […] After 24 h of infection at 37 °C with 5% CO2, extracellular parasites were removed, and DMEM complete medium (100 µL) containing two-fold serial dilutions of the compounds, from 100 µM to 0.049 µM, was added to each well. A positive control treated with 1% DMSO was added to each Lab-tek chamber-slide. After 48 h of treatment, the medium was removed and cells were fixed in methanol for 1 min, stained in 10% Giemsa (Merck) for 5 min, and further rinsed in water before observation in phase contrast at the microscope (Olympus CX31; Olympus, Rungis, France). The number of amastigotes was counted by two independent experimenters for a total of 300 macrophages per well and the ratio of amastigotes per macrophage was determined for each condition. This ratio was further compared with the one of the positive control, considered as 100%, to determine a percentage of inhibition (% I), as follows: % I = 100 − ((ratio of amastigotes per macrophage in treated cells/ratio of amastigotes per macrophages in untreated cells) × 100). The activity of the compounds was expressed as IC50, which was determined by nonlinear regression using GraphPad Prism 7.0. […] In vitro antileishmanial evaluations were performed in triplicate in three independent experiments.

Series [4] addresses T1, hGDP-MP (Homo sapiens, UniProt Q9Y5P6).
T1 construct: His; made in house; host or cells: E. coli
In words: Enzyme inhibition assay on purified recombinant hGDP-MP (malachite green). In kind it is biochemical. As to conditions: 37 °C, 20 min, read-out: hGDP-MP IC50 (µM) ± SD.
Description: as §1, §2, §3

Series [5] is described as follows: In vitro cytotoxicity on RAW 264.7 macrophages (resazurin). It is filed as cell-based. Conditions: mouse, 48 h incubation, read-out: Cytotoxicity on RAW 264.7 CC50 (µM) ± SD. As for the experimental part: The RAW 264.7 macrophages (ATCC) were cultured at 37 °C with 5% CO2 in DMEM complete medium containing Dulbecco′s Modified Eagle′s Medium (DMEM, Invitrogen, Thermo-Fisher, Villebon-sur-Yvette, France) supplemented with penicillin-streptomycin (100 U/mL; Invitrogen), and heat-inactivated fetal bovine serum (10%; HIFBS).
Cytotoxicity was evaluated on RAW 264.7 macrophages. Cells were plated in 96-well microplates at a density of 2 × 10^4 cells per well. After an incubation of 24 h at 37 °C with 5% CO2, the medium was removed in each well, and 100 µL of DMEM complete medium containing two-fold serial dilutions of the compounds, from 100 µM to 0.049 µM, was added to each well. After 48 h of incubation at 37 °C with 5% CO2, 10 µL of resazurin (450 µM) was added to each well, and further incubated in the dark for 4 h at 37 °C with 5% CO2. In living cells, resazurin is reduced in resorufin, and this conversion is monitored by measuring OD570nm (resorufin) and OD600nm (resazurin; multimode microplate reader Spark®, Tecan, Lyon, France). […] In vitro cytotoxicity assays were performed in triplicate in three independent experiments.

Setting [6] is: purified recombinant enzyme, 37 °C, 20 min, read-out: LiGDP-MP IC50 (µM) ± SD.

Chain of LiGDP-MP (A4I048 entry or part of it): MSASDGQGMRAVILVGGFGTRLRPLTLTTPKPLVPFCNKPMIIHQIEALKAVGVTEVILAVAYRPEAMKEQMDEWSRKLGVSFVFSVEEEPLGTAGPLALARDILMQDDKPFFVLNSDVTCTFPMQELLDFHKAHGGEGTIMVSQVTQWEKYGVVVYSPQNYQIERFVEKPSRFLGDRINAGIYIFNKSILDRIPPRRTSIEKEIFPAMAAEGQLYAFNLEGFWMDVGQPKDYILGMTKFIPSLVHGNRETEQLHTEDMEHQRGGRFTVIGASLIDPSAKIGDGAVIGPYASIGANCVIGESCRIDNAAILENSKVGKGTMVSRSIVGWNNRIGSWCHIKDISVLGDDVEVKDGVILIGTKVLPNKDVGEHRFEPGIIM
T1 sequence (Q9Y5P6 whole entry): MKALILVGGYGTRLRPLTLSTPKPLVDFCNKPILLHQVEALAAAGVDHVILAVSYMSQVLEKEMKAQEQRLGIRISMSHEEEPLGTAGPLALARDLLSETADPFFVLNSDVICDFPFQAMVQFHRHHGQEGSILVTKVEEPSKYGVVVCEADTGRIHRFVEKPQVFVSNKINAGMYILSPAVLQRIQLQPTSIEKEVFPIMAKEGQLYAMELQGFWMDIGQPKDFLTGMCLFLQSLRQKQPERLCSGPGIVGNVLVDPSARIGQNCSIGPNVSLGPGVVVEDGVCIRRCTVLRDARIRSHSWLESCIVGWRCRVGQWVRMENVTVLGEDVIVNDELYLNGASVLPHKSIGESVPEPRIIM

`CCCCCCCCCCCCCCCCOP(=O)([O-])OCC[N+](C)(C)C` [Miltefosine, hexadecylphosphocholine, reference compound]: the IC50 in series [1] is greater than 250 µM; in series [2] (Leishmania infantum, 72 h), 1 ± 0.3 µM; in series [3], 6.7 ± 1.7 µM. The “activity on leishmanial GDP-MP (in words)” value in series [1] (purified enzyme) was “did not show any activity”.

Take `COc1cc(O)cc(CCCCCCC/C=C\CCCCCCCc2cc(O)cc(O)c2)c1` [compound 1, (8′Z)-1-hydroxy-3-methoxy-5-[16′-(3′′,5′′-dihydroxy-phenyl)-8′-hexadecen-1′-yl]benzene]: the IC50 in series [2] is 78.9 ± 3.1 µM; in series [2] (Leishmania infantum, 72 h), greater than 50 µM; in series [3] it was greater than 50 µM; in series [4], 1.3 ± 0.2 µM. The “Selectivity Index” value in series [3] is on record as less than 0.7. Besides, in series [5], the CC50 at 48 h came to 34.4 ± 1.5 µM.

Take `COc1cc(O)cc(CCCCCCCCCCCCCCCCc2cc(O)cc(O)c2)c1` [compound 2, 1-hydroxy-3-methoxy-5-[16′-(3′′,5′′-dihydroxyphenyl)-hexadecanyl]benzene]: the IC50 stood at 5.9 ± 3.5 µM in series [1] (setting [6]) and 13.7 ± 14.2 µM in series [4].

As to `COc1cc(O)cc(CCCCCCCCC/C=C\CCCCCCCc2cc(O)cc(O)c2)c1` [compound 3, (10′Z)-1-hydroxy-3-methoxy-5-[18′-(3′′,5′′-dihydroxy-phenyl)-10′-octodecen-1′-yl]benzene], the IC50 in series [1] (setting [6]) is 2.3 µM; in series [2], 49.5 ± 4.2 µM; in series [2] (Leishmania infantum, 72 h), greater than 25 µM; in series [3], greater than 25 µM; in series [4], 1.9 ± 0.4 µM. In addition, the “Selectivity Index” value in series [3] was less than 1.2. In addition, in series [5], the CC50 at 48 h is 31.8 ± 1.6 µM.

As to `CCCC/C=C\CCCCCc1cccc(O)c1C(=O)O` [compound 4, Khookerianic acid B], the IC50 in series [1] (setting [6]) was 120 ± 27.5 µM; in series [2] (Leishmania infantum, 72 h), greater than 100 µM; in series [3] it was greater than 100 µM; in series [4], 79.9 ± 5.9 µM. Moreover, the “Selectivity Index” value in series [3] is less than 0.8. Moreover, the half-maximal cytotoxic concentration (CC50) at 48 h in series [5] was determined as 83.1 ± 7 µM.

As to `CCCCCCCCCCCc1cccc(O)c1C(=O)O` [compound 5, anagigantic acid], the concentration for half-maximal inhibition (IC50) was 50.6 ± 4.8 µM in series [1] (setting [6]); greater than 100 µM in series [2] (Leishmania infantum, 72 h); greater than 100 µM in series [3]; 38.3 ± 4.1 µM in series [4]. The CC50 at 48 h in series [5] was greater than 100 µM.

As for `CCCC/C=C\CCCCCCCc1cccc(O)c1C(=O)O` [compound 6, (Z)-2-hydroxy-6-(tridec-8-en-1-yl)benzoic acid], the IC50 in series [1] (setting [6]) was 100 ± 16.6 µM; in series [2] (Leishmania infantum, 72 h), greater than 100 µM; in series [3], 42.7 ± 1.3 µM; in series [4], 122 ± 26.1 µM. Further, the “Selectivity Index” value in series [3] is on record as greater than 2.3. In addition, the cytotoxic concentration (CC50) at 48 h in series [5] is greater than 100 µM.

Regarding `CCCCCCCCCCCCCc1cccc(O)c1C(=O)O` [compound 7, 2-hydroxy-6-tridecylbenzoic acid], the IC50 in series [1] (setting [6]) was 16.9 ± 5 µM; in series [2] (Leishmania infantum, 72 h) it was greater than 100 µM; in series [3] it was greater than 100 µM; in series [4], 29 ± 2.5 µM. Further, the CC50 at 48 h in series [5] was greater than 100 µM.

As a reminder, the IC50 is the midpoint of a concentration-inhibition curve. For orientation: CC50 means the concentration that lowers cell viability or growth by half.

The values are drawn from paper PMC7999366, “Alkyl-Resorcinol Derivatives as Inhibitors of GDP-Mannose Pyrophosphorylase with Antileishmanial Activities” (Molecules, 2021).
